According to patent US6365570B1, “Pharmaceutical and diagnostic use of Serum Amyloid P component” (priority 1999, dated 2002):
Entries after “also recorded” stand apart in the source; their conditions may differ.

Key:
[1] = target: binding of LPS to monocytes; assay: Inhibition of FITC-LPS binding to monocytes (flow cytometry); format: cell-based, human; settings: for IC50: FITC-LPS 2.5 ng/ml, 30 ng/ml recombinant LBP, mononuclear cells of healthy volunteers, 30 minutes at 37° C., read-out: 50% inhibition concentration; for inhibition of binding of LPS to monocytes (in words): FITC-LPS binding to monocytes in vitro, FIG. 2 / FIG. 4
Description: 2.1 Materials and method LPS of Salmonella Re595 (ReLPS, supra) is labelled with FITC (Sigma; F7250) under conditions in which LPS is present as monomer, resulting in a FITC-LPS preparation with a ratio of 1 molecule FITC per molecule PLS. After extension desalting and dialysis against PBS, the stock solution of FITC-LPS is stored at −20° C. Mononuclear leukocytes (monocytes and lymphocytes) are isolated from heparin blood of healthy volunteers via a Ficol (Pharmacial) gradient in accordance with a standard method. After washing the cells are resuspended in isotonic HEPES buffer (with 1 mM CalCl2 and 2% BSA). Preparations with SAP are mixed with FITC-LPS and subsequently added to 3×10^5 mononuclear cells and 30 ng/ml recombinant LSP (obtained from Dr. Lichtenstein) in a total volume of 50 μl and a FITC-LPS concentration of 2.5 ng/ml. After an incubating period of 30 minutes at 37° C., the samples are stored on ice. Analysis of monocyte-associated FITC-LPS binding takes place with PAC Scan™ Flow cytometer. Forward and Sideward Scatter parameters are used to identify the monocyte population. With LysisII™ software (Beckton & Dickinson) the average fluorescence value of 5000 monocytes is calculated. See also Weersing A. J. L. et al., J. Immunol. 145, 318-324 (1990)).
3.1 Materials and method The test was performed in the same manner as described in example 2. However, SAP fragments (peptides) were used instead of SAP. The amino acid composition of the tested peptides is shown in table 2, as well as the concentration at which 50% inhibition occurs.

[2] = system: LPS priming of neutrophils; assay: Inhibition of LPS priming of neutrophils (fMLP/luminol luminescence); format: cell-based, human; settings: 1 ng/ml ReLPS, 30 ng/ml r-LBP, 30 minutes at 37° C., fMLP stimulus, FIG. 3
Description: 4.1 Materials and method Neutrophils are isolated from heparin blood of healthy volunteers via a Histopaque-Picoll gradient in accordance with a standard method (Van Amerafoort, E. S. & J. A. G. van Strijp, Cytometry 17, 294-301 (1994). The remaining erythrocytes in the neutrophil fraction are lysed with sterile water (for 30 seconds) and, after reinstatement of the isotonicity, the fraction is washed. The cells are finally inserted (suspended) in HGSS+2% Human Serum Albumin (HSA). Cells (1×10^4) are incubated with 1 ng/ml ReLPS, 30 ng/ml recombinant LPS-binding protein (r-LPS) and a sample SAP in a total volume of 100 μl for 30 minutes at 37° C. The samples are subsequently placed in a luminometer (Berthold; Autolumat LB953), whereafter via automatic injection luminol (180 μM) and 1 μM fMLP (formylmethyonyl-leucyl-phenylalanine) are added as stimulus to each tube. The luminescence response is measured continuously for 15 minutes and the results expressed as total luminescence response (area under the graph). See also Weersink et al., Immunology 83, 617-623 (1994).

LPS of Salmonella Re595 = assay: Binding to LPS-Beads, SDS-PAGE analysis; settings: FIG. 1A and 1B, serum pre-incubated with free ReLPS
Description: 1.1 Materials and method A 1 mg/ml solution of LPS of Salmonella Re595 (Sigma; L9764) in carbonate buffer (0.1 M, pH 9.5) is incubated for 24 hours with 5×10^7 DynaBeads™ (M450, Dynal A. S., Oslo, Norway) activated with Tosyl. The beads loaded with LPS are washed 3x and stored in HBSS+0.1% Na-azide (5×10^7 b/ml). A 10% dilution (1 to 10 dilution) of serum of healthy volunteers is mixed with 5×10^6 LPS-Beads for 30 minutes at 22° C. The serum has optionally been incubated before hand with different concentrations of free LPS. The beads are washed 3x with HBSS (Gibco BRL, Gaithersburg, Md., US) and subsequently resuspended in 25 μl SDS-PAGE sample buffer (with 2% SDS and 2.5% DTT). After boiling for 3 minutes at 100° C. the sample is analyzed on a 12.5% SDS-PAGE (Mini-ProteanII; Bio-Rad). The proteins present are stained with Coomassie Blue. A sample with Marker proteins of known sizes (Bio-Rad) serves as reference. For identification the proteins are transferred after SDS-PAGE to nitrocellulose paper by means of a Mini Trans-Blotter™. The proteins are stained with Coomassie Blue, and the protein around 30 kDa is […] and dissolved in buffer. The sequence of this sample is determined. SAP is isolated from normal human serum by making use of the Ca-dependent binding to Sepharose. […]

Substance	IC50 [1] [µM]	inhibition of binding of LPS to monocytes (in words) [1]	activation (priming) of neutrophils by LPS [2]	binding to LPS-Beads / free LPS (LPS of Salmonella Re595)
SAP fragment, amino acids 27-34: Glu Lys Pro Leu Gln Asn Phe Thr, SEQ ID NO 8 (EKPLQNFT; Fragment of the Serum Amyloid P component, peptide 27-34) [PEP 27-34]	> 106	–	–	–
SAP fragment, amino acids 27-39: Glu Lys Pro Leu Gln Asn Phe Thr Leu Cys Phe Arg Ala, SEQ ID NO 1 (EKPLQNFTLCFRA; Fragment of the Serum Amyloid P component, peptides 27-39; listed as Homo sapiens) [PEP 27-39]	0.1	very good activity	–	–
SAP fragment, amino acids 28-35: Lys Pro Leu Gln Asn Phe Thr Leu, SEQ ID NO 7 (KPLQNFTL; Fragment of the Serum Amyloid P component, peptide 28-35) [PEP 28-35]	> 100	–	–	–
SAP fragment, amino acids 29-36: Pro Leu Gln Asn Phe Thr Leu Cys, SEQ ID NO 5 (PLQNFTLC; Fragment of the Serum Amyloid P component, peptide 29-36) [PEP 29-36]	6.5	acceptable activity	–	–
SAP fragment, amino acids 30-37: Leu Gln Asn Phe Thr Leu Cys Phe, SEQ ID NO 4 (LQNFTLCF; Fragment of the Serum Amyloid P component, peptide 30-37) [PEP 30-37]	4.5	acceptable activity	–	–
SAP fragment, amino acids 32-39: Asn Phe Thr Leu Cys Phe Arg Ala, SEQ ID NO 3 (NFTLCFRA; Fragment of the Serum Amyloid P component, peptides 32-39) [PEP 32-39]	2	acceptable activity	–	–
SAP fragment, amino acids 33-38: Phe Thr Leu Cys Phe Arg, SEQ ID NO 2 (FTLCFR; Fragment of the Serum Amyloid P component, peptides 33-38) [PEP 33-38]	–	acceptable activity	–	–
Serum Amyloid P component [SAP]	0.05	concentration-dependent inhibition	greatly reduced	capable of binding with free LPS; also recorded: binds to the LPS-Beads
